From PubChem BioAssay AID330 (DTP/NCI, 2004)
Where “and” joins values, the source holds several entries; their conditions need not be identical. Equal values may be shown once. Inconclusive results and toxic doses are left out. Rule for the calls: active = survival T/C of 150% or more; inactive = T/C below 125% in these data.

System: P388 leukemia ip, CD2F1 mice, survival T/C
Test: NCI In Vivo Anticancer Drug Screen. Data for tumor model P388 Leukemia (intraperitoneal) in CD2F1 (CDF1) mice
Settings: endpoint: median survival time, higher = longer survival
Summary of the method: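 Mice carrying the transplanted tumor received test compound or vehicle. Survival was recorded in each group, and the value is the treated-group measurement divided by that of the vehicle-treated control group.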

[1] = dose: 50.0 mg/kg/injection, schedule: Q01DX005 (ip), vehicle: saline
[2] = dose: 100.0 mg/kg/injection, schedule: Q01DX005 (ip), vehicle: saline
[3] = dose: 50.0 mg/kg/injection, schedule: Q01DX009 (ip), vehicle: saline
[4] = dose: 100.0 mg/kg/injection, schedule: Q01DX009 (ip), vehicle: saline
[5] = dose: 200.0 mg/kg/injection, schedule: Q01DX009 (ip), vehicle: saline

Measured: T/C

CCN(CC)CCC(O)c1ccc(Cl)c2ccccc12 (configuration not stated)
inactive: [1] 106 % of control | [2] 101 % of control

CCCCCNc1ccc(NCCCCC)c2c1C(=O)c1ccccc1C2=O
inactive: [3] 98 % of control | [4] 99 % of control | [5] 89 % of control

C[n+]1ccc(C(=O)O)cc1 (tested in a mixture with another compound)
inactive: dose: 100.0 mg/kg/injection, schedule: Q04DX003 (ip), vehicle: saline 104 % of control | dose: 200.0 mg/kg/injection, schedule: Q04DX003 (ip), vehicle: saline 98 % of control | dose: 400.0 mg/kg/injection, schedule: Q04DX003 (ip), vehicle: saline 98 % of control

CN(C)c1ccc(C=NCCCN=Cc2ccc(N(C)C)cc2)cc1
inactive: dose: 100.0 mg/kg/injection, schedule: Q01DX009 (ip), vehicle: saline with Tween-80 104 % of control

O=C1NC(=O)C(c2ccccc2)(c2ccccc2)N1S(=O)(=O)c1ccccc1
inactive: dose: 50.0 mg/kg/injection, schedule: Q01DX009 (ip), vehicle: Klucel (hydroxypropylcellulose) (HPC) 100 % of control | dose: 100.0 mg/kg/injection, schedule: Q01DX009 (ip), vehicle: Klucel (hydroxypropylcellulose) (HPC) 108 % of control | dose: 200.0 mg/kg/injection, schedule: Q01DX009 (ip), vehicle: Klucel (hydroxypropylcellulose) (HPC) 106 % of control

CC(C)=NOC1CCCCC1O (configuration not stated)
inactive: dose: 100.0 mg/kg/injection, schedule: Q04DX003 (ip), vehicle: saline with Tween-80 96 % of control | dose: 200.0 mg/kg/injection, schedule: Q04DX003 (ip), vehicle: saline with Tween-80 99 % of control | dose: 400.0 mg/kg/injection, schedule: Q04DX003 (ip), vehicle: saline with Tween-80 106 % of control

CC(=O)C(C(C)=O)=[Se](c1ccccc1)c1ccccc1
inactive: dose: 100.0 mg/kg/injection, schedule: Q04DX002 (ip), vehicle: saline 99 % of control | dose: 200.0 mg/kg/injection, schedule: Q04DX002 (ip), vehicle: saline 100 % of control | dose: 400.0 mg/kg/injection, schedule: Q04DX002 (ip), vehicle: saline 99 % of control

CCOC(=O)C(=O)/C=C/[C@H]1[C@H](C)CC=C[C@H]1NC(=O)OCc1ccccc1
inactive: dose: 60.0 mg/kg/injection, schedule: Q01DX005 (ip), vehicle: saline with Tween-80 103 % of control | dose: 120.0 mg/kg/injection, schedule: Q01DX005 (ip), vehicle: saline with Tween-80 99 % of control | dose: 240.0 mg/kg/injection, schedule: Q01DX005 (ip), vehicle: saline with Tween-80 97 % of control

CC(N)/C(N)=N/O (configuration not stated)
inactive: [1] 99 % of control | [2] 100 % of control | dose: 200.0 mg/kg/injection, schedule: Q01DX005 (ip), vehicle: saline 110 % of control

N#CN(Cc1ccccc1)C(c1ccccc1)(c1ccccc1)c1ccccc1.[Br][Sn]([c]1ccccc1)([c]1ccccc1)[c]1ccccc1
inactive: dose: 1.5 mg/kg/injection, schedule: Q01DX005 (ip), vehicle: saline with Tween-80 98 % of control | dose: 3.0 mg/kg/injection, schedule: Q01DX005 (ip), vehicle: saline with Tween-80 100 % of control | dose: 6.0 mg/kg/injection, schedule: Q01DX005 (ip), vehicle: saline with Tween-80 101 % of control | dose: 6.25 mg/kg/injection, schedule: Q01DX005 (ip), vehicle: saline with Tween-80 94 % of control

CC(C)CC(NC(=O)OCC[P+](c1ccccc1)(c1ccccc1)c1ccccc1)C(=O)O (configuration not stated)
inactive: dose: 6.25 mg/kg/injection, schedule: Q04DX003 (ip), vehicle: saline 102 % of control | dose: 12.5 mg/kg/injection, schedule: Q04DX003 (ip), vehicle: saline 105 % of control | dose: 25.0 mg/kg/injection, schedule: Q04DX003 (ip), vehicle: saline 112 % of control | dose: 50.0 mg/kg/injection, schedule: Q04DX003 (ip), vehicle: saline 121 % of control

Cc1ccc(-c2cnc3c(n2)c(=O)[nH]c(=O)n3C)cc1
inactive: dose: 100.0 mg/kg/injection, schedule: Q04DX003 (ip), vehicle: Klucel (hydroxypropylcellulose) (HPC) 103 % of control | dose: 200.0 mg/kg/injection, schedule: Q04DX003 (ip), vehicle: Klucel (hydroxypropylcellulose) (HPC) 98 % of control

C/C=C/C=C/c1cc2cc3c(c(O)c2c(=O)[nH]1)C1(CC3)C(O)=c2c(=O)c3c(=O)cc(OC)c(=O)c=3c(=O)c2=C1O (configuration not stated)
active: dose: 6.0 mg/kg/injection, schedule: Q01DX009 (ip), vehicle: Klucel (hydroxypropylcellulose) (HPC) 156 % of control | dose: 12.0 mg/kg/injection, schedule: Q01DX009 (ip), vehicle: Klucel (hydroxypropylcellulose) (HPC) 192 % of control | dose: 500.0 micrograms/kg/injection, schedule: Q01DX009 (ip), vehicle: water 153 % of control | dose: 1000.0 micrograms/kg/injection, schedule: Q01DX009 (ip), vehicle: water 160 % of control and 178 % of control | dose: 2000.0 micrograms/kg/injection, schedule: Q01DX009 (ip), vehicle: water 175 % of control
inactive: dose: 0.12 mg/kg/injection, schedule: Q01DX009 (ip), vehicle: other 116 % of control | dose: 0.25 mg/kg/injection, schedule: Q01DX009 (ip), vehicle: other 118 % of control | dose: 0.5 mg/kg/injection, schedule: Q01DX009 (ip), vehicle: other 87 % of control and 100 % of control | dose: 0.75 mg/kg/injection, schedule: Q01DX009 (ip), vehicle: Klucel (hydroxypropylcellulose) (HPC) 98 % of control | dose: 1.0 mg/kg/injection, schedule: Q01DX009 (ip), vehicle: other 113 % of control | dose: 1.5 mg/kg/injection, schedule: Q01DX009 (ip), vehicle: Klucel (hydroxypropylcellulose) (HPC) 99 % of control | dose: 1.5 mg/kg/injection, schedule: Q01DX009 (ip), vehicle: saline with Tween-80 112 % of control | dose: 8.0 mg/kg/injection, schedule: Q01DX009 (ip), vehicle: other 123 % of control | dose: 12.0 mg/kg/injection, schedule: Q01DX009 (ip), vehicle: saline with Tween-80 87 % of control | dose: 63.0 micrograms/kg/injection, schedule: Q01DX009 (ip), vehicle: other 101 % of control | dose: 63.0 micrograms/kg/injection, schedule: Q01DX009 (ip), vehicle: water 101 % of control and 110 % of control | dose: 125.0 micrograms/kg/injection, schedule: Q01DX009 (ip), vehicle: other 99 % of control | dose: 125.0 micrograms/kg/injection, schedule: Q01DX009 (ip), vehicle: water 112 % of control and 119 % of control | dose: 250.0 micrograms/kg/injection, schedule: Q01DX009 (ip), vehicle: other 102 % of control | dose: 250.0 micrograms/kg/injection, schedule: Q01DX009 (ip), vehicle: water 119 % of control and 120 % of control | dose: 500.0 micrograms/kg/injection, schedule: Q01DX009 (ip), vehicle: other 114 % of control | dose: 1000.0 micrograms/kg/injection, schedule: Q01DX009 (ip), vehicle: other 115 % of control

CNC(=S)NNc1ccccn1
inactive: dose: 12.5 mg/kg/injection, schedule: Q01DX009 (ip), vehicle: other 105 % of control | dose: 25.0 mg/kg/injection, schedule: Q01DX009 (ip), vehicle: other 102 % of control | dose: 50.0 mg/kg/injection, schedule: Q01DX009 (ip), vehicle: other 104 % of control | dose: 100.0 mg/kg/injection, schedule: Q01DX009 (ip), vehicle: other 101 % of control | dose: 200.0 mg/kg/injection, schedule: Q01DX009 (ip), vehicle: other 95 % of control

Cn1c(=O)c2[nH]c(Cl)nc2n(C)c1=O
inactive: dose: 25.0 mg/kg/injection, schedule: Q01DX009 (ip), vehicle: saline 100 % of control | [3] 102 % of control | [4] 102 % of control | [5] 99 % of control

C=CCOc1ccncc1
inactive: dose: 12.5 mg/kg/injection, schedule: Q01DX009 (ip), vehicle: saline with Tween-80 100 % of control | dose: 25.0 mg/kg/injection, schedule: Q01DX009 (ip), vehicle: saline with Tween-80 95 % of control | dose: 50.0 mg/kg/injection, schedule: Q01DX009 (ip), vehicle: saline with Tween-80 90 % of control

NC(Cc1csc2ccc(Cl)cc12)C(=O)O (configuration not stated)
inactive: dose: 50.0 mg/kg/injection, schedule: Q01DX001 (ip), vehicle: Klucel (hydroxypropylcellulose) (HPC) 102 % of control | dose: 100.0 mg/kg/injection, schedule: Q01DX001 (ip), vehicle: Klucel (hydroxypropylcellulose) (HPC) 100 % of control

CC(C)COC1CCc2ncccc2O1 (configuration not stated)
inactive: [3] 104 % of control | [4] 104 % of control | [5] 103 % of control

Cc1nc(N)nc(N)c1CCCc1ccccc1
inactive: dose: 3.12 mg/kg/injection, schedule: Q01DX001 (ip), vehicle: Klucel (hydroxypropylcellulose) (HPC) 107 % of control | dose: 6.25 mg/kg/injection, schedule: Q01DX001 (ip), vehicle: Klucel (hydroxypropylcellulose) (HPC) 101 % of control | dose: 12.5 mg/kg/injection, schedule: Q01DX001 (ip), vehicle: Klucel (hydroxypropylcellulose) (HPC) 105 % of control | dose: 12.5 mg/kg/injection, schedule: Q01DX001 (ip), vehicle: saline 100 % of control
